Assay results taken from PubChem BioAssay AID248 (DTP/NCI, 2004).
Values joined by “and” are separate entries in the source; they are usually repeats but may differ in a detail not shown here. Equal values may be shown once. Inconclusive results and toxic doses are left out. No stated cut-off is given here; in the data, active means T/C of 150% or more; inactive means T/C below 125%.

Test system: L1210 leukemia ip in BDF1 mice, survival T/C
Assay: NCI In Vivo Anticancer Drug Screen. Data for tumor model L1210 Leukemia (intraperitoneal) in B6D2F1 (BDF1) mice
Conditions: endpoint: mean survival time, higher = longer survival
Outline: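 In this screen, tumor-bearing mice given compound are compared to those given vehicle, and their survival values are reported as a treated-to-control quotient.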

[1] = dose: 100.0 mg/kg/injection, schedule: Q04DX003 (ip), vehicle: saline with Tween-80
[2] = dose: 200.0 mg/kg/injection, schedule: Q04DX003 (ip), vehicle: saline with Tween-80
[3] = dose: 400.0 mg/kg/injection, schedule: Q04DX003 (ip), vehicle: saline with Tween-80
[4] = dose: 100.0 mg/kg/injection, schedule: Q04DX002 (ip), vehicle: Klucel (hydroxypropylcellulose) (HPC)
[5] = dose: 200.0 mg/kg/injection, schedule: Q04DX002 (ip), vehicle: Klucel (hydroxypropylcellulose) (HPC)
[6] = dose: 400.0 mg/kg/injection, schedule: Q04DX002 (ip), vehicle: Klucel (hydroxypropylcellulose) (HPC)
[7] = dose: 50.0 mg/kg/injection, schedule: Q01DX009 (ip), vehicle: Klucel (hydroxypropylcellulose) (HPC)
[8] = dose: 100.0 mg/kg/injection, schedule: Q01DX009 (ip), vehicle: Klucel (hydroxypropylcellulose) (HPC)
[9] = dose: 100.0 mg/kg/injection, schedule: Q04DX003 (ip), vehicle: Klucel (hydroxypropylcellulose) (HPC)
[10] = dose: 200.0 mg/kg/injection, schedule: Q01DX009 (ip), vehicle: Klucel (hydroxypropylcellulose) (HPC)
[11] = dose: 200.0 mg/kg/injection, schedule: Q04DX003 (ip), vehicle: Klucel (hydroxypropylcellulose) (HPC)
[12] = dose: 400.0 mg/kg/injection, schedule: Q04DX003 (ip), vehicle: Klucel (hydroxypropylcellulose) (HPC)
[13] = dose: 100.0 mg/kg/injection, schedule: Q01DX001 (ip), vehicle: saline
[14] = dose: 200.0 mg/kg/injection, schedule: Q01DX001 (ip), vehicle: saline
[15] = dose: 400.0 mg/kg/injection, schedule: Q01DX001 (ip), vehicle: saline
[16] = dose: 100.0 mg/kg/injection, schedule: Q01DX009 (ip), vehicle: saline with Tween-80
[17] = dose: 200.0 mg/kg/injection, schedule: Q01DX009 (ip), vehicle: saline with Tween-80
[18] = dose: 400.0 mg/kg/injection, schedule: Q01DX009 (ip), vehicle: saline with Tween-80

Measured: T/C

c1ccc2c(c1)ccc1cc3cc(NCCCCNc4ccc5nc6c(ccc7ccccc76)cc5c4)ccc3nc12
inactive: dose: 1.56 mg/kg/injection, schedule: Q01DX009 (ip), vehicle: saline with Tween-80 95 % of control | dose: 3.13 mg/kg/injection, schedule: Q01DX009 (ip), vehicle: saline with Tween-80 92 % of control | dose: 6.25 mg/kg/injection, schedule: Q01DX009 (ip), vehicle: saline with Tween-80 95 % of control and 111 % of control | dose: 12.5 mg/kg/injection, schedule: Q01DX009 (ip), vehicle: saline with Tween-80 87 % of control

C=CCN(CC=C)c1nc(Oc2ccccc2)nc(Oc2ccccc2)n1
inactive: dose: 25.6 mg/kg/injection, schedule: Q04DX002 (ip), vehicle: saline with Tween-80 104 % of control | dose: 64.0 mg/kg/injection, schedule: Q04DX002 (ip), vehicle: saline with Tween-80 101 % of control | [1] 89 % of control | dose: 160.0 mg/kg/injection, schedule: Q04DX002 (ip), vehicle: saline with Tween-80 93 % of control | [2] 92 % of control | dose: 400.0 mg/kg/injection, schedule: Q04DX002 (ip), vehicle: saline with Tween-80 89 % of control | [3] 93 % of control

COC1=NS(=O)(=O)C(C)C(C)(C)O1 (stereo not drawn)
inactive: [4] 100 % of control | [5] 120 % of control | [6] 100 % of control

C=C1C(=O)OC2C1CCC1(C)CCCC(=C)C21O (stereo not drawn)
inactive: dose: 25.0 mg/kg/injection, schedule: Q04DX002 (ip), vehicle: saline 105 % of control | dose: 50.0 mg/kg/injection, schedule: Q04DX002 (ip), vehicle: saline 102 % of control | dose: 100.0 mg/kg/injection, schedule: Q04DX002 (ip), vehicle: saline 93 % of control and 97 % of control | dose: 200.0 mg/kg/injection, schedule: Q04DX002 (ip), vehicle: saline 90 % of control

CC(C)CN(CC(C)C)c1ccc([N+](=O)[O-])cc1[N+](=O)[O-]
inactive: [1] 94 % of control | [2] 98 % of control | [3] 96 % of control

Cc1cccc[n+]1CCC(N)=O
inactive: dose: 6.25 mg/kg/injection, schedule: Q01DX009 (ip), vehicle: saline 97 % of control | dose: 12.5 mg/kg/injection, schedule: Q01DX009 (ip), vehicle: saline 97 % of control | dose: 25.0 mg/kg/injection, schedule: Q01DX009 (ip), vehicle: saline 108 % of control

CN(C(=O)Oc1ccccc1)c1ccc(S(=O)(=O)F)cc1
inactive: dose: 100.0 mg/kg/injection, schedule: Q01DX001 (ip), vehicle: saline with Tween-80 104 % of control | dose: 200.0 mg/kg/injection, schedule: Q01DX001 (ip), vehicle: saline with Tween-80 96 % of control | dose: 400.0 mg/kg/injection, schedule: Q01DX001 (ip), vehicle: saline with Tween-80 98 % of control

C(=N\c1oc(-c2ccccc2)nc1SCc1ccccc1)/c1ccccc1
inactive: [4] 96 % of control | [5] 96 % of control | [6] 120 % of control

Cc1ccc(NC(=O)OCCN2CCNC2=S)c([N+](=O)[O-])c1
inactive: [7] 95 % of control | [8] 87 % of control | [9] 93 % of control | [10] 91 % of control | [11] 91 % of control | [12] 96 % of control

Cc1ccnc2c1ccc1ccccc12
inactive: [13] 100 % of control | [14] 98 % of control | [15] 93 % of control

COc1cc(Cl)ccc1NC(=O)Oc1ccc2ccccc2c1
inactive: [4] 108 % of control | [5] 90 % of control | [6] 104 % of control

C=C1C(=O)OC2C1C(OC(=O)/C(=C/C)COC(C)=O)CC1(CO1)C1C(OC(=O)/C(=C/C)CO)C=C(C)C21 (stereo not drawn)
inactive: [7] 93 % of control | [8] 93 % of control | [10] 86 % of control

O=C(O)/C=C/c1ccc(O)c(O)c1
inactive: dose: 100.0 mg/kg/injection, schedule: Q04DX002 (ip), vehicle: gum acacia 92 % of control | dose: 200.0 mg/kg/injection, schedule: Q04DX002 (ip), vehicle: gum acacia 92 % of control | dose: 400.0 mg/kg/injection, schedule: Q04DX002 (ip), vehicle: gum acacia 95 % of control

Nc1ccccc1C(=O)c1ccccc1
inactive: dose: 100.0 mg/kg/injection, schedule: Q01DX001 (ip), vehicle: Klucel (hydroxypropylcellulose) (HPC) 94 % of control | [16] 90 % of control | [9] 98 % of control | [1] 93 % of control | dose: 200.0 mg/kg/injection, schedule: Q01DX001 (ip), vehicle: Klucel (hydroxypropylcellulose) (HPC) 93 % of control | [17] 95 % of control | [11] 98 % of control | [2] 95 % of control | [3] 95 % of control

Cc1ccc2c(c1)C(c1ccccc1)(c1ccccc1)OC2=O
inactive: [16] 98 % of control | [17] 98 % of control | [18] 103 % of control

Cc1ccc(C)c(-n2nnc3ccccc3c2=O)c1
inactive: [16] 89 % of control | [1] 95 % of control | [17] 92 % of control | [2] 101 % of control | [18] 91 % of control | [3] 96 % of control

CN1N=Nc2cccc3cccc1c23
inactive: dose: 50.0 mg/kg/injection, schedule: Q01DX009 (ip), vehicle: acetone 112 % of control | dose: 100.0 mg/kg/injection, schedule: Q01DX009 (ip), vehicle: acetone 107 % of control | dose: 100.0 mg/kg/injection, schedule: Q04DX003 (ip), vehicle: acetone 94 % of control | dose: 200.0 mg/kg/injection, schedule: Q04DX003 (ip), vehicle: acetone 87 % of control

O=C1COc2ccc(F)cc2N1
inactive: [4] 98 % of control | [5] 102 % of control | [6] 109 % of control

COc1ccc(C(=O)/C=C/c2ccc(C(C)C)cc2)cc1
inactive: dose: 75.0 mg/kg/injection, schedule: Q04DX003 (ip), vehicle: saline 94 % of control | dose: 150.0 mg/kg/injection, schedule: Q04DX003 (ip), vehicle: saline 100 % of control | dose: 300.0 mg/kg/injection, schedule: Q04DX003 (ip), vehicle: saline 89 % of control

C=C(C)c1cc2ccccc2cc1O
inactive: [16] 98 % of control | [1] 90 % of control | [17] 100 % of control | [2] 94 % of control | [18] 98 % of control | [3] 92 % of control

CC1=CC(=O)C(C)(C)CC1
inactive: dose: 50.0 mg/kg/injection, schedule: Q01DX009 (ip), vehicle: saline with Tween-80 96 % of control | [16] 92 % of control | [17] 100 % of control

CC(C)SSC(C)C
inactive: [13] 105 % of control | [14] 108 % of control | [15] 89 % of control

C/C(=N/O)c1ccc(O)cc1
inactive: [16] 103 % of control | [17] 96 % of control | [18] 97 % of control

C[NH-].C[NH-].C[NH-].C[NH-].[Cl][Rh][Cl]
inactive: [8] 97 % of control | [9] 86 % of control | [11] 94 % of control | [12] 92 % of control

Cc1cnc2nc(N)[nH]c(=O)c2c1
inactive: dose: 100.0 mg/kg/injection, schedule: Q04DX003 (ip), vehicle: saline sonified 98 % of control | dose: 200.0 mg/kg/injection, schedule: Q04DX003 (ip), vehicle: saline sonified 95 % of control | dose: 400.0 mg/kg/injection, schedule: Q04DX003 (ip), vehicle: saline sonified 95 % of control
